Patent US7166622B2, “Substituted phenylsulfonamide inhibitors of beta amyloid production” (Wyeth, priority 2002, dated 2007)

Key:
beta amyloid production = assay: Repressor Release Assay (RRA); assay type: cell-based; settings: for fold induction at 20 µg/mL: Conc 20 μg/ml; for fold induction at 20 µg/mL / APPI Fold Increase / fold induction at 10 µg/mL: luciferase activity over diluent control; for fold induction at 20 µg/mL / fold induction at 10 µg/mL: read-out: APPI Fold Increase; for APPI Fold Increase / APPI % of Example #98 / fold induction at 10 µg/mL: Conc 10 μg/ml; for APPI % of Example #98: relative to Example 98
How it was run: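 Read-out is luciferase luminescence (RLU) after 36-48 h duplicate compound exposure of transfected CHO-K1 cells. These cells carry transiently introduced APP-lacI and pRSVO-luc DNA. Diluent control was 25 mM Hepes/1% DMSO; toxicity recorded as binary score (1 non-toxic, 0 toxic).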

CHO-K1 cells = assay: Toxicity in RRA (loss of luciferase signal); settings: toxicity = loss of signal (<0.75 fold increase)
Experimental: The beta amyloid inhibitory activity of the compounds of the present invention was determined using the Repressor Release Assay (RRA).
“Fold Increase” refers to the amount of luciferase activity (measured in relative light units) over diluent control. “SEM” refers to the standard error of the mean for fold increase.

What does the source list for `CC[C@H](C)[C@@H](CO)NS(=O)(=O)c1ccc(Cl)c(N)c1` [Example 14, 3-Amino-4-chloro-N-[(1S,2S)-1-(hydroxymethyl)-2-methylbutyl]benzenesulfonamide]?
fold induction at 20 µg/mL (beta amyloid production): 1.9; melting point: 89 to 92 °C; (%)APPI Toxicity (CHO-K1 cells; Conc 20 μg/ml): 1 (1=non-toxic)

Which “APPI Fold Increase” value (beta amyloid production) does the source give for `CC[C@H](C)[C@H](NS(=O)(=O)c1ccccc1F)C(O)(c1ccc(Cl)cc1)c1ccc(Cl)cc1` [Example 267, N-{(1S,2S)-1-[bis(4-chlorophenyl)(hydroxy)methyl]-2-methylbutyl}-2-fluoro benzenesulfonamide] here?
Its value is 1.59 fold.

What about the “APPI % of Example #98” value (beta amyloid production) of the same compound?
The value was 58.97%.

What about the “(%)APPI Toxicity” value (CHO-K1 cells; Conc 10 μg/ml) of the same compound?
The value was 1 (1=non-toxic).

Which fold induction at 10 µg/mL (beta amyloid production) does the source give for `C=C(C)C(O)(C(=C)C)[C@@H](NS(=O)(=O)c1ccccc1F)[C@@H](C)CC` [Example 268, 2-fluoro-N-{(1S)-2-hydroxy-2-isopropenyl-3-methyl-1-[(1S)-1-methylpropyl]-3-butenyl}benzenesulfonamide] here?
The fold induction at 10 µg/mL was 1.75.

And the “(%)APPI Toxicity” value (CHO-K1 cells; Conc 10 μg/ml)?
The value was 1 (1=non-toxic).

Which fold induction at 10 µg/mL (beta amyloid production) does the source give for `CC[C@H](C)[C@H](NS(=O)(=O)c1ccccc1F)C(O)(c1ccc(OC)cc1)c1ccc(OC)cc1` [Example 269, 2-fluoro-N-((1S,2S)-1-{hydroxy[bis(4-methoxyphenyl)]methyl}-2-methylbutyl)benzenesulfonamide] here?
Its fold induction at 10 µg/mL is 1.58.

What about the “(%)APPI Toxicity” value (CHO-K1 cells; Conc 10 μg/ml) of the same compound?
The value was 1 (1=non-toxic).

What does the source list for `C/C=C(\C)C(O)(/C(C)=C/C)[C@@H](NS(=O)(=O)c1ccccc1F)[C@@H](C)CC` (stereo partly drawn) [Example 270, 2-fluoro-N-{(1S,3E)-2-hydroxy-3-methyl-2-[(1E)-1-methyl-1-propenyl]-1-[(1S)-1-methylpropyl]-3-pentenyl}benzenesulfonamide]?
fold induction at 10 µg/mL (beta amyloid production): 1.86; (%)APPI Toxicity (CHO-K1 cells; Conc 10 μg/ml): 1 (1=non-toxic)

What does the source list for `C=CCCC(O)(CCC=C)[C@@H](NS(=O)(=O)c1ccccc1F)[C@@H](C)CC` [Example 271, N-{(1S)-2-(3-butenyl)-2-hydroxy-1-[(1S)-1-methylpropyl]-5-hexenyl}-2-fluorobenzenesulfonamide]?
fold induction at 10 µg/mL (beta amyloid production): 1.82; (%)APPI Toxicity (CHO-K1 cells; Conc 10 μg/ml): 1 (1=non-toxic)

With `O=S(=O)(N[C@H](CO)C1CCCCC1)c1ccc(Cl)cc1` [Example 272, 4-Chloro-N-[(1S)-1-cyclohexyl-2-hydroxyethyl]benzenesulfonamide] as the compound, how does the fold induction at 20 µg/mL (beta amyloid production) read?
Its fold induction at 20 µg/mL is 2.3.

What about the melting point of the same compound?
Its melting point is 115 to 118 °C.

What about the “(%)APPI Toxicity” value (CHO-K1 cells; Conc 20 μg/ml) of the same compound?
Its value is 1 (1=non-toxic).

What does the source list for `O=S(=O)(N[C@H](CO)c1ccccc1)c1ccc(Cl)cc1` [Example 273, 4-Chloro-N-[(1S)-2-hydroxy-1-phenylethyl]benzenesulfonamide]?
fold induction at 20 µg/mL (beta amyloid production): 1.5; melting point: 127 to 128 °C; (%)APPI Toxicity (CHO-K1 cells; Conc 20 μg/ml): 1 (1=non-toxic)

For `CC(C)[C@@H](CO)NS(=O)(=O)c1ccc(Cl)cc1` [Example 274, 4-Chloro-N-[(1S)-1-(hydroxymethyl)-2-methylpropyl]benzenesulfonamide], which fold induction at 20 µg/mL (beta amyloid production) is on record?
The fold induction at 20 µg/mL was 2.1.

What about the melting point of the same compound?
Its melting point is 83 to 85 °C.

What about the “(%)APPI Toxicity” value (CHO-K1 cells; Conc 20 μg/ml) of the same compound?
Its value is 1 (1=non-toxic).

For `CC(C)[C@@H](CO)NS(=O)(=O)c1ccc(Br)cc1` [Example 275, 4-Bromo-N-[(1S)-1-(hydroxymethyl)-2-methylpropyl]benzenesulfonamide], which fold induction at 20 µg/mL (beta amyloid production) is on record?
The fold induction at 20 µg/mL was 2.

And the melting point?
Its melting point is 89 to 94 °C.

What about the “(%)APPI Toxicity” value (CHO-K1 cells; Conc 20 μg/ml) of the same compound?
The value was 1 (1=non-toxic).

Which results are given for `CC[C@H](C)[C@@H](CO)NS(=O)(=O)c1ccc(I)cc1` [Example 276, 4-Iodo-N-[(1S,2S)-1-(hydroxymethyl)-2-methylbutyl]benzenesulfonamide]?
fold induction at 20 µg/mL (beta amyloid production): 2; melting point: 118 to 120 °C; (%)APPI Toxicity (CHO-K1 cells; Conc 20 μg/ml): 1 (1=non-toxic)

What does the source list for `CC(C)(C)[C@@H](CO)NS(=O)(=O)c1ccc(Cl)cc1` [Example 277, 4-Chloro-N-[(1S)-1-(hydroxymethyl)-2,2-dimethylpropyl]benzenesulfonamide]?
fold induction at 20 µg/mL (beta amyloid production): 1.5; melting point: 128 to 130 °C; (%)APPI Toxicity (CHO-K1 cells; Conc 20 μg/ml): 1 (1=non-toxic)

With “N-{(1S)-2-allyl-2-hydroxy 1-[(1S)-1-methylpropyl]-4-pentenyl}-4-bromo benzenesulfonamide [Example 216]” as the compound, how does the “APPI Fold Increase” value (beta amyloid production) read?
The value was 1.58 fold.

What about the “APPI % of Example #98” value (beta amyloid production) of the same compound?
The value was 72.76%.

What about the “(%)APPI Toxicity” value (CHO-K1 cells; Conc 10 μg/ml) of the same compound?
The value was 1 (1=non-toxic).
